Here are results for 7 compounds from publication PMC7252514 (Science (New York, N.Y.), 2019).

The target in one data set is α7 nAChR (Homo sapiens, UniProt P36544). Briefly: Agonist activity at α7 nAChR. The data set is classed as cell-based.
Data set [1] has as its target T1, PSAM^4-5HT3 (Homo sapiens, UniProt P36544, L131G/Q139L/Y217F, form not given, species not given). In words: Membrane potential. The data set is classed as cell-based. Particulars: endogenous ligands.
Data set [2] addresses α7^L131G,Q139L,Y217F-GlyR (Homo sapiens, UniProt P23415+P36544, L131G/Q139L/Y217F). In words: Electrophysiological recordings from HEK-293 cells expressing PSAM4-GlyR. The data set is classed as cell-based.
The test system of another data set is PgP. Particulars: cited from earlier work.
Data set [3] deals with PSAM^4-GlyR in SNr GABAergic neurons. Briefly: Unilateral SNr silencing rotation assay in PSAM4-GlyR mice. The format is in vivo.
The subject of data set [4] is cultured hippocampal neurons expressing PSAM^4-GlyR. Briefly: Continuous silencing of cultured hippocampal neurons expressing PSAM4-GlyR. The data set is classed as cell-based. Particulars: varenicline 15 nM for 3 – 18 days.
Data set [5] addresses T1, PSAM^4-5HT3. Briefly: Electrophysiology of PSAM4-5HT3 currents. The data set is classed as cell-based. Particulars: off-rate.
Another data set in a line: Food intake. The settings on record: elevated doses. The data set is classed as in vivo, mice.
For data set [6], the system named is PSAM^4-GlyR in GPi neurons. In words: In vivo electrophysiology of GPi neurons transduced with PSAM4-GlyR. More on the design: species or system rhesus monkey. Particulars: subcutaneous 0.1 mg/kg, versus varenicline prior to AAV transduction.
For data set [7] the following is noted: cited from earlier work.
The next data set concerns α7^L131G-GlyR. Briefly: Membrane potential. The data set is classed as cell-based. The settings on record: α7L131G-GlyR versus parent channel.
The test system of data set [8] is cultured hippocampal neuron expressing PSAM^4-5HT3. In words: Sustained depolarization of cultured hippocampal neurons by PSAM4-5HT3. Particulars: continuous varenicline 15 nM exposure.
The subject of data set [9] is PSAM^4-5HT3 HC-expressing layer 2/3 cortical neurons. Briefly: Depolarization of layer 2/3 cortical neurons expressing PSAM4-5HT3 HC. Particulars: varenicline 15 nM.
For data set [10], the system named is PSAM^4-GlyR-expressing layer 2/3 cortical neurons. The format is cell-based, mice. The settings on record: varenicline 10 – 16 nM.
Data set [11] has as its target α7^L131G,Q139L,Y217F-GlyR (PSAM^4-GlyR) (Homo sapiens, UniProt P36544, L131G/Q139L/Y217F). In words: Membrane potential. The data set is classed as cell-based.

T1 sequence (P23979 242-489, form open): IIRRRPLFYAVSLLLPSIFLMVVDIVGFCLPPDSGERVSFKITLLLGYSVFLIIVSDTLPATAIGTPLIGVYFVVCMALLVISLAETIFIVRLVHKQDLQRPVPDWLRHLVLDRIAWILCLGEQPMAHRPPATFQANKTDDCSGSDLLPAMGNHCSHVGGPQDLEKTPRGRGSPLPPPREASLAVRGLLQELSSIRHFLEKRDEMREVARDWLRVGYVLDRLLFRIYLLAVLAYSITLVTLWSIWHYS
T1 sequence (P36544 23-224 L131G/Q139L/Y217F, form open): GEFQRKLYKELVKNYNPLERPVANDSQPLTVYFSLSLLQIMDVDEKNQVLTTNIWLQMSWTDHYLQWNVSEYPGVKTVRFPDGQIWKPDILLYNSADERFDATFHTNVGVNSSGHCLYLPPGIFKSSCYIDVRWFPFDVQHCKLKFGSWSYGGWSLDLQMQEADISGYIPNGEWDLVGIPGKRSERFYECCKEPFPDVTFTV
α7 nAChR, sequence (P36544 23-502): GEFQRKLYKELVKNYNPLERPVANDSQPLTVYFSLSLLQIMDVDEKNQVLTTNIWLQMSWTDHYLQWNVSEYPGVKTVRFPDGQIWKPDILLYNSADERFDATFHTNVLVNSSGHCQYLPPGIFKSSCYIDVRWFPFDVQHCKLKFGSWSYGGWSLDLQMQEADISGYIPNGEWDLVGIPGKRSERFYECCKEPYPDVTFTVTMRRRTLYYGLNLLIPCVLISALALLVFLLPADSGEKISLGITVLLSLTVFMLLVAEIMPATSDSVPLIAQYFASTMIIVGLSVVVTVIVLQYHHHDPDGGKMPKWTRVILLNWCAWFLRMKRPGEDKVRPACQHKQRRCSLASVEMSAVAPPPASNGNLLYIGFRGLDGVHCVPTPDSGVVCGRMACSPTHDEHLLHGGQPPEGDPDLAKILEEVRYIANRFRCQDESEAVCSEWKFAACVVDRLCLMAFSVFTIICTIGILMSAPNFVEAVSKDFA
α7^L131G,Q139L,Y217F-GlyR (PSAM^4-GlyR), sequence (P36544 23-229 L131G/Q139L/Y217F): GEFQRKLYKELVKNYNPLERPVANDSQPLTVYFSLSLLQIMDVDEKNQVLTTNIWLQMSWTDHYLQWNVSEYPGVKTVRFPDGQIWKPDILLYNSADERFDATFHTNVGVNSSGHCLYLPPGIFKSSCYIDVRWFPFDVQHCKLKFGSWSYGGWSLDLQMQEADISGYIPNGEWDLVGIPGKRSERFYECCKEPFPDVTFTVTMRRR
α7^L131G,Q139L,Y217F-GlyR (PSAM^4-GlyR), sequence (P23415 248-457 partner): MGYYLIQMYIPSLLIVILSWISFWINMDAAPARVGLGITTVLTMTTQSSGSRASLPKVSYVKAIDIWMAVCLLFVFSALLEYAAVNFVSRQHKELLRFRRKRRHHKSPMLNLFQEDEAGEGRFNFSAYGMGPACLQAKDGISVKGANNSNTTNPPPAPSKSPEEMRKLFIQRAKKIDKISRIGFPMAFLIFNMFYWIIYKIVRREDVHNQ

Consider `CN1C2CCCC1CC(NC(=O)c1nn(C)c3ccccc13)C2` (centres unmarked) [granisetron], for which, on α7 nAChR, the “agonist activity at α7 nAChR” value was “no agonist activity”.

Take `CC(=O)OCC[N+](C)(C)C` [ACh, acetylcholine]: the “potency at PSAM4-5HT3” value at PSAM^4-5HT3 [1] was “low potencies”.

Turning to `NCC(=O)O` [glycine], the response to glycine result in data set [2] is listed as “did not respond”.

On to `C[N+]1([O-])CCN(C2=Nc3cc(Cl)ccc3Nc3ccccc32)CC1` [CNO, clozapine-N-oxide], for which, in the data set on PgP, the PgP substrate entry is given as “substrate for the P-glycoprotein efflux pump”.

Take `c1cnc2cc3c(cc2n1)[C@@H]1CNC[C@H]3C1` [varenicline]: in data set [3] (intraperitoneal), the “time for rotation activity to return nearly to baseline” value is reported as approximately 4 h and the “time to evident behavioral effects of silencing” value is on record as not above 20 min. For the same compound, the “lowest effective dose (LED)” value in [3] (intraperitoneal, onset of rotation, with amphetamine 3 mg/kg) turned out to be 0.1 mg/kg. In data set [3] (oral delivery 5 μg/mL), the “circling after oral delivery” value is recorded as “elicited circling”. In addition, the “rheobase under constant exposure” value in data set [4] is “maintained elevated rheobase”. Further, the t-off1/2 at PSAM^4-5HT3 [5] was found to be 3.2 ± 1.3 min. Also, the food intake entry in “Food intake” is recorded as “reduced”. Moreover, in data set [6], the “GPi neuron firing rate and burst firing rate” value is “significantly inhibited”. Also, the brain penetrance result in data set [7] was “excellent brain penetrance”. Besides, the potency enhancement with α7^L131G-GlyR amounted to 17 fold. The PgP substrate result in the data set with PgP is listed as “not a PgP substrate”. Also, in data set [8], the “duration of sustained depolarization” value was 14 to 22 days. In addition, the depolarization entry in data set [9] was “+17.2 ± 2.4 mV”. In addition, in [10], the “increase of current amplitude required to fire an action potential (rheobase)” value is on record as 6 fold and the suppression of firing result is reported as “strongly suppressed firing”. Also, the “reduction of input resistance” value in [10] (on average) amounted to 3 fold.

For `C[N+](C)(C)CCO` [choline], in [11], the EC50 (as a rule, the concentration needed to bring the measured effect to its halfway point) was 128 ± 32 µM. In addition, at PSAM^4-5HT3 [1], the “potency at PSAM4-5HT3” value is listed as “low potencies”.

As for `CN1[C@@H]2CC[C@H]1C[C@@H](OC(=O)c1c[nH]c3ccccc13)C2` [tropisetron], the potency enhancement in the data set with α7^L131G-GlyR is 3 fold.
